Assay results as given in PubChem BioAssay AID1259411 (Chemical Carcinogenesis Research Information System (CCRIS), 2018).
Activity calls are given as the source filed them. How the calls were made is not given here.

System: rodent carcinogenicity bioassays, tumor incidence
Experiment: CCRIS carcinogenicity studies
In short: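 NCI-built, expert-reviewed records of carcinogenicity and related test outcomes (mutagenicity, tumor promotion/inhibition) compiled from published and report sources, historical span 1985-2011, not updated.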

COc1cc(-c2ccc(N=C=O)c(OC)c2)ccc1N=C=O
carcinogen call (Species: MOUSE, Strain/Sex: B6C3F1/FEMALE, Route: ORAL, Dose: 0, 22000, 44000 PPM IN DIET FOR 78 WK (STUDY DURATION: 103 WK), Dose: 0, 22000, 44000 PPM IN DIET FOR 78 WK (STUDY DURATION: 103 WK)): inactive; negative | carcinogen call (Species: MOUSE, Strain/Sex: B6C3F1/MALE, Route: ORAL, Dose: 0, 22000, 44000 PPM IN DIET FOR 78 WK (STUDY DURATION: 103 WK), Dose: 0, 22000, 44000 PPM IN DIET FOR 78 WK (STUDY DURATION: 103 WK)): inactive; negative | carcinogen call (Species: RAT, Strain/Sex: F344/FEMALE, Route: GAVAGE, ORAL, Dose: 0, 1500, 3000 MG/KG FOR 22 WK, THEN 22000, 44000 PPM IN DIET FOR 56 WK (STUDY DURATION: 104 WK), Dose: 0, 1500, 3000 MG/KG FOR 22 WK, THEN 22000, 44000 PPM IN DIET FOR 56 WK (STUDY DURATION: 104 WK), Tumor Site: Type of Lesion: HEMATOPOIETIC SYSTEM (LEUKEMIA), UTERUS: ENDOMETRIAL STROMAL POLYP, EAR (ZYMBAL GLAND AND SKIN OF EAR): SQUAMOUS CELL CA, Tumor Site: Type of Lesion: HEMATOPOIETIC SYSTEM (LEUKEMIA), UTERUS: ENDOMETRIAL STROMAL POLYP, EAR (ZYMBAL GLAND AND SKIN OF EAR): SQUAMOUS CELL CA): active; positive | carcinogen call (Species: RAT, Strain/Sex: F344/MALE, Route: GAVAGE, ORAL, Dose: 0, 1500, 3000 MG/KG FOR 22 WK, THEN 22000, 44000 PPM IN DIET FOR 56 WK (STUDY DURATION: 104 WK), Dose: 0, 1500, 3000 MG/KG FOR 22 WK, THEN 22000, 44000 PPM IN DIET FOR 56 WK (STUDY DURATION: 104 WK), Tumor Site: Type of Lesion: INTEGUMENTARY SYSTEM (SKIN (EXCLUDING SKIN OF EAR)): PAPILLOMA (NOS) OR BASAL CELL TUMOR OR TRICHOEPITHELIOMA OR SEBACEO): active; positive

O=C(O)[C@@H](O)[C@@H](O)[C@H](O)[C@@H](O)C(=O)[O-].O=C(O)[C@@H](O)[C@@H](O)[C@H](O)[C@@H](O)C(=O)[O-].O=C(O)[C@@H](O)[C@@H](O)[C@H](O)[C@@H](O)C(=O)[O-].[Fe+3]
carcinogen call (Species: RAT, Strain/Sex: WISTAR/MALE, Route: INTRAPERITONEAL, Dose: 0, 5 MG/KG IN GLUCOSE SOLUTION 1/D 6 D/WK FOR 3 MO (STUDY DURATION: 1 YR, 3 MO), Tumor Site: Type of Lesion: PERITONEAL CAVITY: MESOTHELIOMA): active; positive

COc1ccc(CN(CCN(C)C)c2ccccn2)cc1
carcinogen call (Species: MOUSE, Strain/Sex: B6C3F1/FEMALE, Route: ORAL, Dose: 0, 150, 750, 1500 PPM IN DIET FOR 103 WK (STUDY DURATION: 103 WK), Dose: 0, 150, 750, 1500 PPM IN DIET FOR 103 WK (STUDY DURATION: 103 WK)): inactive; negative | carcinogen call (Species: MOUSE, Strain/Sex: B6C3F1/MALE, Route: ORAL, Dose: 0, 150, 750, 1500 PPM IN DIET FOR 103 WK (STUDY DURATION: 104 WK), Dose: 0, 150, 750, 1500 PPM IN DIET FOR 103 WK (STUDY DURATION: 104 WK)): inactive; negative | carcinogen call (Species: RAT, Strain/Sex: F344/FEMALE, Route: ORAL, Dose: 0, 300, 1500, 3000 PPM IN DIET FOR 2 YR (STUDY DURATION: 2 YR), Dose: 0, 300, 1500, 3000 PPM IN DIET FOR 2 YR (STUDY DURATION: 2 YR)): inactive; negative | carcinogen call (Species: RAT, Strain/Sex: F344/FEMALE, Route: ORAL, Dose: 0, 2000 PPM IN DIET (TOTAL DOSE: 120 G/KG) FOR 110 WK (STUDY DURATION: 133 WK)): inactive; negative | carcinogen call (Species: RAT, Strain/Sex: F344/FEMALE, Route: ORAL, Dose: 0, 2000 PPM IN DRINKING WATER (0.2%) 5 D/WK FOR 110 WK (TOTAL DOSE: 88 G/KG) (STUDY DURATION: 133 WK)): inactive; negative | carcinogen call (Species: RAT, Strain/Sex: F344/MALE, Route: ORAL, Dose: 0, 300, 1500, 3000 PPM IN DIET FOR 2 YR (STUDY DURATION: 2 YR), Dose: 0, 300, 1500, 3000 PPM IN DIET FOR 2 YR (STUDY DURATION: 2 YR)): inactive; negative | carcinogen call (Species: RAT, Strain/Sex: F344/MALE, Route: ORAL, Dose: 0, 2000 PPM (0.2%) IN DRINKING WATER 5 D/WK FOR 110 WK (TOTAL DOSE: 55 G/KG) (STUDY DURATION: 133 WK)): inactive; negative | carcinogen call (Species: RAT, Strain/Sex: F344/MALE, Route: ORAL, Dose: O, 2000 PPM IN DIET (TOTAL DOSE: 110 G/KG) FOR 110 WK (STUDY DURATION: 133 WK)): inactive; negative | carcinogen call (Species: RAT, Strain/Sex: SPRAGUE-DAWLEY/FEMALE, Route: ORAL, Dose: 0, 500, 1000 PPM IN DRINKING WATER 5D/WK FOR LIFE (STUDY DURATION: 549-745 D), Dose: 0, 500, 1000 PPM IN DRINKING WATER 5D/WK FOR LIFE (STUDY DURATION: 549-745 D)): inactive; negative | carcinogen call (Species: RAT, Strain/Sex: SPRAGUE-DAWLEY/MALE, Route: ORAL, Dose: 0, 500, 1000 PPM IN DRINKING WATER 5D/WK FOR LIFE (STUDY DURATION: 496-611 D), Dose: 0, 500, 1000 PPM IN DRINKING WATER 5D/WK FOR LIFE (STUDY DURATION: 496-611 D)): inactive; negative

CC(C)COC(=O)c1ccc(O)cc1
carcinogen call (Species: MOUSE, Strain/Sex: ICR/FEMALE, Route: ORAL, Dose: 0, 0.15, 0.3, 0.6% IN DIET FOR 102 WK (STUDY DURATION: 106 WK), Dose: 0, 0.15, 0.3, 0.6% IN DIET FOR 102 WK (STUDY DURATION: 106 WK)): inactive; negative | carcinogen call (Species: MOUSE, Strain/Sex: ICR/MALE, Route: ORAL, Dose: 0, 0.15, 0.3, 0.6% IN DIET FOR 102 WK (STUDY DURATION: 106 WK), Dose: 0, 0.15, 0.3, 0.6% IN DIET FOR 102 WK (STUDY DURATION: 106 WK)): inactive; negative

c1ccc2c(c1)ccc1cc3ccc4c(c3nc12)[C@H]1O[C@H]1CC4
carcinogen call (Species: MOUSE, Strain/Sex: CD-1/FEMALE, Route: INTRAPERITONEAL, Dose: 0, 28 NMOL (TOTAL DOSE) ADMINISTERED AS 1/7 OF DOSE WITHIN 24 HR AFTER BIRTH, 2/7 OF DOSE AT 8 D OLD, 4/7 OF DOSE AT 15, Tumor Site: Type of Lesion: LUNG: TUMOR): active; positive | carcinogen call (Species: MOUSE, Strain/Sex: CD-1/MALE, Route: INTRAPERITONEAL, Dose: 0, 28 NMOL (TOTAL DOSE) ADMINISTERED AS 1/7 OF DOSE WITHIN 24 HR AFTER BIRTH, 2/7 OF DOSE AT 8 D OLD, 4/7 OF DOSE AT 15, Tumor Site: Type of Lesion: LIVER: TUMOR, LUNG: TUMOR): active; positive

O=C([O-])C(=O)[O-].O=C([O-])C(=O)[O-].[K+].[K+].[O]=[Ti+2]
carcinogen call (Species: MOUSE, Strain/Sex: SWISS/FEMALE, Route: ORAL, Dose: 0, 5 PPM IN DRINKING WATER FOR DURATION OF STUDY (STUDY DURATION: LIFE SPAN)): inactive; negative | carcinogen call (Species: MOUSE, Strain/Sex: SWISS/MALE, Route: ORAL, Dose: 0, 5 PPM IN DRINKING WATER FOR DURATION OF STUDY (STUDY DURATION: LIFE SPAN)): inactive; negative

CC(=O)C=O
carcinogen call (Species: MOUSE, Strain/Sex: CD-1/FEMALE, Route: DERMAL, Dose: 0, 50 UMOL/0.1 ML DMSO 2/WK FOR 5 WK FOLLOWED 1 WK LATER BY 0.1 ML ACETONE 2/WK FOR 47 WK (STUDY DURATION: 52 WK)): inactive; negative

CCCCCCCC/C=C\CCCCCCCC(=O)O
carcinogen call (Species: MOUSE, Strain/Sex: B6C3F1/FEMALE, Route: ORAL, Dose: 0, 0.25, 1.0% IN DRINKING WATER FOR 96 WK (STUDY DURATION: 104 WK), Dose: 0, 0.25, 1.0% IN DRINKING WATER FOR 96 WK (STUDY DURATION: 104 WK)): inactive; negative | carcinogen call (Species: MOUSE, Strain/Sex: B6C3F1/MALE, Route: ORAL, Dose: 0, 0.25, 1.0% IN DRINKING WATER FOR 96 WK (STUDY DURATION: 104 WK), Dose: 0, 0.25, 1.0% IN DRINKING WATER FOR 96 WK (STUDY DURATION: 104 WK)): inactive; negative | carcinogen call (Species: RAT, Strain/Sex: F344/FEMALE, Route: ORAL, Dose: 0, 2.5, 5% IN DRINKING WATER FOR 108 WK (STUDY DURATION: 2 YR), Dose: 0, 2.5, 5% IN DRINKING WATER FOR 108 WK (STUDY DURATION: 2 YR)): inactive; negative | carcinogen call (Species: RAT, Strain/Sex: F344/MALE, Route: ORAL, Dose: 0, 2.5, 5% IN DRINKING WATER FOR 108 WK (STUDY DURATION: 2 YR), Dose: 0, 2.5, 5% IN DRINKING WATER FOR 108 WK (STUDY DURATION: 2 YR)): inactive; negative
